Results published in patent US7049066B2, “Diagnosis and treatment of myocardial failure” (The Regents of the University of Colorado, priority 1997, dated 2006).

How the values were obtained:
[1] = system: isolated right ventricular (RV) trabeculae from end-stage failing human hearts; settings: 1 nM T3, incubated for 4 or 12 hours
α-MHC = settings: hypothyroid rats; cited from earlier work

adrenergic receptor gene expression, T3 group compared to control group [1]	Structure (SMILES)	SRCA gene expression, T3 group compared to control group [1]	% α-MHC isoform mRNA present following incubation ([1]; p < .05 vs. no T3)	% β-MHC isoform mRNA present following incubation ([1]; p < .05 vs. no T3)	production of α-MHC (α-MHC)
no significant differences	N[C@@H](Cc1cc(I)c(Oc2ccc(O)c(I)c2)c(I)c1)C(=O)O [T3, 3,5,3′-triiodo-L-thyronine]	no significant differences	24.5 ± 9.29 %	75.5 ± 9.29 %	
	O=C(O)CCc1cc(I)c(Oc2ccc(O)cc2)c(I)c1 [3,5-diiodothyroproprionic acid]				increase the production of (α-MHC
